Reference: US20240360151A1 (SANOFI, priority 2023, published 2024)

Legend:
[1] = molecular target: T1, NLRP3 inflammasome (Homo sapiens, UniProt Q96P20); assay: IL-1β secretion assay (NLRP3 IC50) in LPS-primed, nigericin-activated THP-1 cells, HTRF; assay type: cell-based; details: monocytic THP-1 cells; LPS 10 ng/mL 3 h priming, then compound + nigericin 10 μM 2 h; relative IC50, 10 concentrations, geometric mean
T1 construct: endogenous in cells; host or cells: THP-1 monocytic cells
In short: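 IL-1β in supernatant read by HTRF after 2 h co-incubation of compound (0.1% DMSO, 10 concentrations, 1:3 series) with nigericin at 10 μM final, following 3 h LPS (10 ng/mL) priming of THP-1 monocytes at 37° C. Inhibition normalised to unactivated and no-compound controls; geometric-mean relative IC50 from 4-parameter logistic model.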

[2] = system: NF-kB pathway (TNF-α secretion by THP-1 cells); assay: TNF-α secretion assay in LPS-stimulated THP-1 cells, Lumit immunoassay; assay type: cell-based, human; details: Homo sapiens, THP-1, 3 h, monocytic THP-1 cells, LPS 10 ng/mL, relative IC50, 10 concentrations, geometric mean
In short: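 TNF-α release was quantified directly in the cell plate by Lumit immunoassay after a 3-h, 10 ng/mL LPS trigger of compound-treated THP-1 cells (RPMI, 5% FBS). Percent inhibition versus no-compound and unstimulated controls fed a 4-parameter logistic fit over 10 concentrations, giving geometric-mean relative IC50.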

T1 sequence (Q96P20 whole entry): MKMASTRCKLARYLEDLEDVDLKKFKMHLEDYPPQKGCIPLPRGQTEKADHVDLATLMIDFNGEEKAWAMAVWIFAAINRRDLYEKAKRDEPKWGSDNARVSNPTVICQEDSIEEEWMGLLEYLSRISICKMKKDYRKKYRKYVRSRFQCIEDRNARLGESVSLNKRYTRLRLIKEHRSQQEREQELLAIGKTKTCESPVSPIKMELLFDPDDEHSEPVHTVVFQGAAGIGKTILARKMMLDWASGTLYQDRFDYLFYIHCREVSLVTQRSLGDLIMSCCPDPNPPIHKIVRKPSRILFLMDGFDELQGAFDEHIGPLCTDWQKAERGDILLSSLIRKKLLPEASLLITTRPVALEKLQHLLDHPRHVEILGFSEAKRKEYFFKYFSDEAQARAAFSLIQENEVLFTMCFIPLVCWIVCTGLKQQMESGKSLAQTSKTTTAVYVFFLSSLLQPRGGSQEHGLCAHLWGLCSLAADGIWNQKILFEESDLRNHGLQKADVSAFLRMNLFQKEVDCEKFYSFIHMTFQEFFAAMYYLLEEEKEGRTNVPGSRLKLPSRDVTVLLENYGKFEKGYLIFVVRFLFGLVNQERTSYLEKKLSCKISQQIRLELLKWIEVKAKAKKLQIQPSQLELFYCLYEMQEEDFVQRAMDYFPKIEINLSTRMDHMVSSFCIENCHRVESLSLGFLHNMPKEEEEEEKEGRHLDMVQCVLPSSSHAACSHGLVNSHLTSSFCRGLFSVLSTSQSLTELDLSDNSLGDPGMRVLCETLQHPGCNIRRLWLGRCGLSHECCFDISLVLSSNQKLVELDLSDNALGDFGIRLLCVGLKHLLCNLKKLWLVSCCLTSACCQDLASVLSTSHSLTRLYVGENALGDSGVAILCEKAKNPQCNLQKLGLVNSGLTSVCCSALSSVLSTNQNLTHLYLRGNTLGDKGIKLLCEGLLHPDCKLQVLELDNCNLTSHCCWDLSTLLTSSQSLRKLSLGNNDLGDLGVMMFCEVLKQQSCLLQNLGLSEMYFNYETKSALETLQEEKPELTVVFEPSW

| Compound | IC50 [1] [nM] | IC50 [2] [nM] |
| --- | --- | --- |
| CCc1cccc(O)c1-c1cc(C(F)F)c(N2CCO[C@@H]3CCN(C)C[C@@H]32)nn1 [Example 425, 2-[6-[(4aS,8aR)-6-methyl-3,4a,5,7,8,8a-hexahydro-2H-pyrido[4,3-b][1,4]oxazin-4-yl]-5-(difluoromethyl)pyridazin-3-yl]-3-ethyl-phenol] | 55 | > 10000 |
| Cc1cc(N2CCO[C@@H]3CCN(C)C[C@@H]32)nnc1-c1ccc(C(F)(F)F)cc1O [Example 430, 2-[6-[(4aS,8aR)-6-methyl-3,4a,5,7,8,8a-hexahydro-2H-pyrido[4,3-b][1,4]oxazin-4-yl]-4-methyl-pyridazin-3-yl]-5-(trifluoromethyl)phenol] | < 0.3 | > 10000 |
| CC(=O)N1CC[C@H]2OCCN(c3cc(C)c(-c4ccc(C)cc4O)nn3)[C@H]2C1 [Example 431, 1-[(4aS,8aR)-4-[6-(2-hydroxy-4-methyl-phenyl)-5-methyl-pyridazin-3-yl]-3,4a,5,7,8,8a-hexahydro-2H-pyrido[4,3-b][1,4]oxazin-6-yl]ethanone] | 62 | > 10000 |
| CCc1cccc(O)c1-c1ccc(N2CCO[C@@H]3CCN(C(C)C)C[C@@H]32)nn1 [Example 432, 2-[6-[(4aS,8aR)-6-isopropyl-3,4a,5,7,8,8a-hexahydro-2H-pyrido[4,3-b][1,4]oxazin-4-yl]pyridazin-3-yl]-3-ethyl-phenol] | 5 | > 10000 |
| Cc1cc(C)c(-c2ccc(N3CCO[C@@H]4CCN(C(C)C)C[C@@H]43)nn2)c(O)c1 [Example 433, 2-[6-[(4aS,8aR)-6-isopropyl-3,4a,5,7,8,8a-hexahydro-2H-pyrido[4,3-b][1,4]oxazin-4-yl]pyridazin-3-yl]-3,5-dimethyl-phenol] | 2 | > 10000 |
| Cc1cc(C)c(-c2cc(C)c(N3CCO[C@@H]4CCN(C)C[C@@H]43)nn2)c(O)c1 [Example 434, 2-[6-[(4aS,8aR)-6-methyl-3,4a,5,7,8,8a-hexahydro-2H-pyrido[4,3-b][1,4]oxazin-4-yl]-5-methyl-pyridazin-3-yl]-3,5-dimethyl-phenol] | 42 | > 10000 |
| CCN1CC[C@H]2OCCN(c3cc(C)c(-c4ccc(C)cc4O)nn3)[C@H]2C1 [Example 435, 2-[6-[(4aS,8aR)-6-ethyl-3,4a,5,7,8,8a-hexahydro-2H-pyrido[4,3-b][1,4]oxazin-4-yl]-4-methyl-pyridazin-3-yl]-5-methyl-phenol] | 3 | > 10000 |
| CCN1CC[C@H]2OCCN(c3cc(C)c(-c4ccc(C(F)(F)F)cc4O)nn3)[C@H]2C1 [Example 436, 2-[6-[(4aS,8aR)-6-ethyl-3,4a,5,7,8,8a-hexahydro-2H-pyrido[4,3-b][1,4]oxazin-4-yl]-4-methyl-pyridazin-3-yl]-5-(trifluoromethyl)phenol] | 2 | > 10000 |
| CCN1CC[C@H]2OCCN(c3cc(C)c(-c4ccc(Cl)cc4O)nn3)[C@H]2C1 [Example 437, 2-[6-[(4aS,8aR)-6-ethyl-3,4a,5,7,8,8a-hexahydro-2H-pyrido[4,3-b][1,4]oxazin-4-yl]-4-methyl-pyridazin-3-yl]-5-chloro-phenol] | 1 | > 10000 |
| CCc1cc(N2CCO[C@@H]3CCN(C)C[C@@H]32)nnc1-c1ccc(C(F)(F)F)cc1O [Example 443, 2-[6-[(4aS,8aR)-6-methyl-3,4a,5,7,8,8a-hexahydro-2H-pyrido[4,3-b][1,4]oxazin-4-yl]-4-ethyl-pyridazin-3-yl]-5-(trifluoromethyl)phenol] | 10 | > 10000 |
